Test results from ChEMBL document CHEMBL3507680, “University of Dundee, Gates Library screen for HepG2 cell viability”.

Assay: Human HepG2 cell viability assay in 384 well format
Format: toxicity, cell-based
Set-up: dose 125 nL, time 70.5 hour; concentration not given beside the values
Conditions: HepG2 cells, read-out: Inhibition

Row | SMILES | cytotoxicity at 70.5 h [%]
1 | CC(C)Oc1cccc(C(=O)C2CCCN(C(=O)c3ccccn3)C2)c1 (stereo not given) | -8.75
2 | CC(c1ccncn1)N(C)Cc1cc2cc3c(cc2[nH]c1=O)OCO3 (stereo not given) | 3.45
3 | CCc1nn(C)c(Cl)c1CN1CCCC2(CC1)CN(C)C(=O)O2 (stereo not given) | -14.9
4 | Cc1cccnc1CC(C)Nc1nc(N)nc2c1CCNC2 (stereo not given) | 2.93
5 | O=C(c1cc(COc2ccc3c(c2)OCO3)[nH]n1)N1CCCCO1 | 20.1
6 | CC[C@@]1(O)CCN(Cc2cc(C3CCCCC3)no2)C[C@H]1O | -2.92
7 | COc1ccc(OCc2cc(C(=O)N3CCOCC3)n[nH]2)c(Cl)c1 | -2.87
8 | Cc1cc2[nH]c(=O)oc2cc1S(=O)(=O)N1CCCC(N(C)C)CC1 (stereo not given) | -2.95
9 | COc1cccc(Cl)c1C(C(=O)O)N(C)Cc1nnc(C)o1 (stereo not given) | 11.6
10 | Cc1cc(Cl)ccc1C(=O)N1C[C@H](C2CC2)[C@@H](N)C1 | -1.61
11 | CCc1nc2c(c(NC3CCC3)n1)CCN(C(=O)CO)CC2 | 0.47
12 | CCOCc1nc2c(c(NC(CC)c3cccnc3)n1)CCNCC2 (stereo not given) | -3.13
13 | Cc1cc2c(c(-c3c[nH]c(C)n3)c1)OC(CN)C2 (stereo not given) | 2.12
14 | CN(c1ccc(-c2nc(C3CC3)no2)cn1)C1CCOCC1 | -3.42
15 | CC(=O)c1ccc(C(=O)N2C[C@@H]3CC[C@H](C2)N(CC2CCC2)C3)s1 | -3.03
16 | CN1CCN(Cc2n[nH]c(=O)n2CC2CCCCC2)CC1 | -6.17
17 | CN(Cc1ccccc1)C1(C(=O)NC(CO)CO)Cc2ccccc2C1 | 1.88
18 | Cc1nc(C)n(CCCn2ccnc2-c2cc3n(n2)CCCNC3)n1 | -11
19 | Nc1nc2c(c(=O)[nH]1)CCN(C(=O)c1ccccc1N1CCCC1)C2 | 0.043
20 | Nc1nc2c(c(NCc3nccs3)n1)CCN(CC1CCCC1)CC2 | -17.1
21 | CC(C)n1ccnc1CN1CCOC(CC2CCCCC2)C1 (stereo not given) | 5.36
22 | CC(C)(C)c1ncc2c(n1)CN(C(=O)C(C)(C)n1cccc1)C2 | -6.39
23 | Cc1noc(C)c1CN1C(=O)[C@H]2CC[C@@H]1CN(Cc1nccs1)C2 | 0.0707
24 | CN1CCN(C(=O)N2CCCC(c3nccn3CC3CCC3)C2)CC1 (stereo not given) | -15.8
25 | N#Cc1cccc(N2CCC(CO)(CCCc3ccccc3)CC2)n1 | -4.41
26 | Cn1cccc1C(=O)N1CCC2(CCCN(CC3CCC3)C2=O)C1 (stereo not given) | -2.25
27 | Cc1csc(CN(C)c2cc(C)nc3c(C)c(C)nn23)n1 | -7.34

Row | SMILES | cytotoxicity at 70.5 h [%]
28 | CCc1nc(NC2CCCN(C(=O)C3CC3)C2)c2cnn(C)c2n1 (stereo not given) | -15.4
29 | O=C(O)c1cnc(N2CCC(c3nccn3CC3CC3)CC2)c(Cl)c1 | -8.03
30 | COc1ccc(Cl)cc1CN(C)C(=O)CN1C(=O)CCC1C (stereo not given) | -9.27
31 | O=C(O)c1ccnc(-c2ccnc(NCCc3cscn3)n2)c1 | -2.9
32 | Cc1c(-c2nc3cc(S(=O)(=O)N4CCCC4)ccc3n2C)cnn1C | -22.4
33 | Cc1nn(C)c2ncnc(N3CCCC(OCc4ccccn4)C3)c12 (stereo not given) | 1.57
34 | CC(CO)CN(Cc1ccccc1)C(=O)c1csc(CN(C)C)n1 (stereo not given) | -3.43
35 | NC(=O)c1ccc(N2CCN(Cc3c(Cl)cncc3Cl)CC2)nc1 | 10.8
36 | Cc1cc(C)n(CC(C)NC2CCN(Cc3cccnc3)CC2)n1 (stereo not given) | -7.19
37 | CC1CCCN(c2ccc(C(N)=O)cc2NC(=O)CC2=CCNCC2)C1 (stereo not given) | -17.5
38 | CN(CCC1CCOCC1)C(=O)C1CCC(=O)N(Cc2ccccn2)C1 (stereo not given) | 13.4
39 | COCCN1CCC(c2nc3c([nH]2)CCCNC3=O)CC1 | -8.24
40 | c1ccc(C2CN(C3CC3)CC3(CCN(Cc4cscn4)CC3)C2)cc1 (stereo not given) | -5.25
41 | Nc1cc(N2CCCC(COc3ccc(F)cc3)C2)nc(N)n1 (stereo not given) | -2.71
42 | O=c1c2cccc(C(F)(F)F)c2ncn1CCN1CCNCC1 | -1.89
43 | Cc1nc2c(N3CCC(O)(Cn4ccnc4)CC3)ncnc2o1 | -0.124
44 | COCc1nc(CNC2CCSC2)no1 (stereo not given) | -2.87
45 | Fc1cccnc1Oc1cc(F)c(CN2CCCC2)c(Cl)c1 | 22.4
46 | CN(CC(=O)N1CC(Oc2ccccc2Cl)C1)Cc1ccncc1 | 12.8
47 | COC1CCCN(C2CCN(c3cccc(-c4csc(C)n4)c3)CC2)C1 (stereo not given) | -1.69
48 | Cc1sc2nc(CCN)nc(N3CCC(N4CCCC4)CC3)c2c1C | -4.21
49 | CCCNC(=O)c1ccc(S(=O)(=O)NCC2(O)CCCNC2)cc1 (stereo not given) | -5.48
50 | CCc1nnc(CNC(=O)CCCN2CCCCC2)s1 | -0.919
51 | COc1nc2c(cc1C(=O)N1CCCOC(Cn3cccn3)C1)CCC2 (stereo not given) | -2.14
52 | COc1cccc(CN2CCN(Cc3ccc4nonc4c3)CC2=O)c1 | -0.956
53 | N[C@H]1CN(C(=O)c2ccc3[nH]c(CO)nc3c2)C[C@@H]1c1ccccc1 | -19.4
54 | CN(Cc1cccnc1)C[C@H]1CC[C@@H](Cc2ccc3c(cnn3C)c2)O1 | -10.4

Row | SMILES | cytotoxicity at 70.5 h [%]
55 | CC(=O)NCC(=O)N1Cc2c(-c3cccc(C)c3)nc(N)nc2C1C (stereo not given) | -13.1
56 | CCOc1ccc(CN2CCNC(C(=O)NC3CC3)C2)cc1CO (stereo not given) | -10.9
57 | Cc1c(CN2CCCC(C(=O)c3ccc(C(C)(C)C)cc3)C2)cnn1C (stereo not given) | -4.49
58 | O=C(NCCOc1ccccc1)C1NCCc2[nH]cnc21 (stereo not given) | -7.83
59 | O=C1CN(Cc2cnc3c(-c4ccccc4)cnn3c2)CCCN1 | -6.12
60 | CCN1CCN(S(=O)(=O)N2CCc3ccccc3C2)[C@H]2CS(=O)(=O)C[C@H]21 | -9.8
61 | O=C(c1cnc(COc2ccccc2)nc1O)N1CCOCC1 | -5.87
62 | CN1CCCN(C(=O)c2ccc3c(c2)nc(N2CCOCC2)n3C)CC1 | -8.33
63 | CCn1nc(CC(C)C)cc1C(=O)N1CC[C@@H](O)C1 | -3.86
64 | COCC(=O)N1Cc2cnc(Cc3ccc(OC)cc3)nc2C1 | 1.24
65 | CN(CCN1CCCCCC1)C(=O)c1cc(CN2CCC(O)CC2)on1 | -0.511
66 | O=C(NCc1cc(O)ncn1)C1COc2ccccc2C1 (stereo not given) | -8.68
67 | COc1ncc(C2CC(=O)NCc3nc4ccccn4c32)cn1 (stereo not given) | -13.5
68 | Cc1cnccc1N1CCCN(C(=O)CCCS(N)(=O)=O)CC1 | 3.54
69 | CCN1CCC2(CCC1=O)CN(c1ccnc(SC)n1)CCN2C (stereo not given) | 3.52
70 | COC(=O)NCc1cc2n(n1)CCCN(C(C)=O)C2 | -7.46
71 | O=C(O)c1cc(-c2cccnc2)cc(S(=O)(=O)N2CCCCCC2)c1 | -11.7
72 | Cc1cc(N2CCCN(C(=O)Cc3ccc(O)c(Cl)c3)CC2)ccn1 | -4.07
73 | Cc1ccc(-c2cccc(-c3ccn(CCN4CCCC4)n3)c2)nn1 | -6.29
74 | Cc1[nH]ccc1C(=O)N1CCCC(c2nccn2Cc2cscn2)C1 (stereo not given) | 20.2
75 | Cc1ccc2c(c1)c(CNC(=O)C1CC(=O)N(C3CCCC3)C1)nn2C (stereo not given) | 16.8
76 | CCCc1cc(C(=O)N(C)Cc2cccc3ncccc23)n(C)n1 | -14.7
77 | CCn1c(N)nc2cc(C(=O)NCCc3ccccc3C)cnc21 | -5.73
78 | Cc1cc(C[C@@H]2COC[C@@H]2NC(=O)CN2CCCN(C)CC2)on1 | -7.54
79 | CN(Cc1cc[nH]n1)C(=O)c1cccc(CCC(C)(C)O)c1 | -3.42
80 | CCNC(=O)[C@@H]1C[C@H](NC(=O)c2cncnc2C)CN1CCCSC | -1.96
